In patent US6214992A (Hoechst Aktiengesellschaft, priority 1996, dated 2001):
Read-outs that look alike come from different tables or passages of the source.

Assays:
[1] = tested on: C57BL/6 mice; assay: endotoxin (LPS)-induced lethal shock, decrease in mortality; type: in vivo; settings: Mus musculus, ip, read-out: Inhibition of mortality
Procedure: For the testing of preparations for antishock action, various experimental animal models have been developed.
To carry out the experiments, a mixture of 10 ng of LPS from Salmonella abortus equi. and 7.5 mg of galactosamine in 0.2 ml of phosphate-buffered,physiological saline solution was administered to each animal by intravenous injection, which as a rule led to death within 6 to 9 hours. The test preparations were administered intraperitoneally one hour before LPS provocation at a dose of 100 mg/kg. The animals of the control group (n=10) instead of this received pure 0.9% saline solution as placebo. To assess the action of the preparation, the number of surviving animals was determined in the treated group (n=10) 48 hours after LPS administration and from this the percentage inhibition of mortality was determined with respect to the mortality in the control group.

[2] = tested on: Mongolian gerbils; assay: transient global ischemia, CA1 hippocampus nerve cell damage; type: in vivo, Mongolian gerbil; settings: Meriones unguiculatus, ip, 168 h, histopathological score after 7 days versus untreated control, read-out: Inhibition of the neuronal CA1 hippocampus damage; for inhibition in vivo at 10 mg/kg: Dose 10 mg/kg intraperitoneally 30 minutes after 3-minute ischemia
Procedure: To carry out the experiment, which took place according to the guidelines of the German Animal Protection Act, 30 male Mongolian gerbils having a body weight of between 60 and 70 g were randomly divided into two groups each containing 15 animals. The respective test substance was administered to the animals of the first group 30 minutes after the ischemia period by intraperitoneal injection, while the animals of the second group, which served as an untreated control group, only received the same volume of the vehicle concerned. To produce the temporary forebrain ischemia, the animals were fixed in the supine position to a heated operated table, and both common carotid arteries were carefully exposed and closed for 3 minutes by means of microaneurysm clips. 7 days after the 3-minute ischemia period, the animals were decapitated under halothane anesthesia, the brains were rapidly and carefully removed, first fixed by immersion in Carnoy's solution (ethanol/chloroform/acetic acid=6/3/1) and then embedded in paraffin. Subsequently 4 to 6 μm thick coronal sections through the hippocampus were prepared approximately at the height of the bregma and these were stained with hematoxylin and eosin. After this, the extent of eosinophilic necrosis of the pyramidal cells in the CA1 region of the hippocampus was determined by light microscopy in the course of a blind experiment by means of a semiquantitative histopathological score (0=none; 1=slight; 2=medium severe; 3=severe and 4=complete necroses). The assessment variable used for the neuroprotective action was the percentage change in the mean histopathological score of the preparation group compared to that of the untreated control group.

[3] = tested on: Mongolian gerbils; settings: gerbil, comparable experimental conditions; J. Cereb. Blood Flow Metab. 1987, 7/1: 74-81; cited from earlier work
[4] = tested on: rat; settings: comparable experimental conditions, J. Cereb. Blood Flow Metab. 1994, 14/1: 166-173; cited from earlier work
[5] = 100 mg/kg intraperitoneally one hour before LPS/galactosamine, survivors 48 hours after LPS, versus placebo control

## COCn1c(=O)c2[nH]cnc2n(C)c1=O [Compound 1, 1-Methoxymethyl-3-methylxanthine]
[1]; [5]
  inhibition in vivo at 100 mg/kg: 80%

## CCn1c(=O)n(COC)c(=O)c2[nH]cnc21 [Compound 2]
[1]; [5]
  inhibition in vivo at 100 mg/kg: 30%

## CCCCn1c(=O)n(COC)c(=O)c2[nH]cnc21 [Compound 4]
[1]; [5]
  inhibition in vivo at 100 mg/kg: 30%

## COCn1c(=O)c2[nH]cnc2n(C2CC2)c1=O [Compound 5]
[2]
  inhibition in vivo at 10 mg/kg: 20%

## COCCn1c(=O)c2[nH]cnc2n(C)c1=O [Compound 6]
[2]
  inhibition in vivo at 10 mg/kg: 20%

## CCn1c(=O)n(CCOC)c(=O)c2[nH]cnc21 [Compound 7]
[2]
  inhibition in vivo at 10 mg/kg: 33%

## CCCn1c(=O)n(CCOC)c(=O)c2[nH]cnc21 [Compound 8]
[1]; 48 h
  inhibition in vivo at 100 mg/kg: 30%

## CCOCn1c(=O)c2[nH]cnc2n(C)c1=O [Compound 16]
[1]; [5]
  inhibition in vivo at 100 mg/kg: 100%

## CCOCn1c(=O)c2[nH]cnc2n(CC)c1=O [Compound 17]
[1]; [5]
  inhibition in vivo at 100 mg/kg: 100%
[2]
  inhibition in vivo at 10 mg/kg: 66%

## CCOCCn1c(=O)c2[nH]cnc2n(C)c1=O [Compound 21]
[1]; [5]
  inhibition in vivo at 100 mg/kg: 40%

## CCCn1c(=O)n(CCOCC)c(=O)c2[nH]cnc21 [Compound 23]
[1]; 48 h
  inhibition in vivo at 100 mg/kg: 40%

## CCCCn1c(=O)n(CCOCC)c(=O)c2[nH]cnc21 [Compound 24]
[2]
  inhibition in vivo at 10 mg/kg: 30%

## CCOCCn1c(=O)c2[nH]cnc2n(C2CC2)c1=O [Compound 25]
[2]
  inhibition in vivo at 10 mg/kg: 24%

## CCCOCn1c(=O)c2[nH]cnc2n(C)c1=O [Compound 26]
[1]; [5]
  inhibition in vivo at 100 mg/kg: 100%

## CCCOCn1c(=O)c2[nH]cnc2n(CC)c1=O [Compound 27, 3-Ethyl-1-propoxymethylxanthine]
[1]; [5]
  inhibition in vivo at 100 mg/kg: 100%
[2]; Dose 5 mg/kg intraperitoneally 30 minutes after 3-minute ischemia
  inhibition in vivo at 5 mg/kg: 40%
[2]
  inhibition in vivo at 10 mg/kg: 67%

## CCCOCn1c(=O)c2[nH]cnc2n(CCC)c1=O [Compound 28]
[2]
  inhibition in vivo at 10 mg/kg: 30%

## CCCOCn1c(=O)c2[nH]cnc2n(C(C)C)c1=O [Compound 29]
[1]; [5]
  inhibition in vivo at 100 mg/kg: 50%

## CCCCn1c(=O)n(COCCC)c(=O)c2[nH]cnc21 [Compound 30]
[2]
  inhibition in vivo at 10 mg/kg: 24%

## CCCOCn1c(=O)c2[nH]cnc2n(CC(C)C)c1=O [Compound 31, 3-Isobutyl-1-propoxymethylxanthine]
[1]; [5]
  inhibition in vivo at 100 mg/kg: 30%

## CCCOCn1c(=O)c2[nH]cnc2n(-c2ccccc2)c1=O [Compound 32, 3-Phenyl-1-propoxymethylxanthine]
[1]; [5]
  inhibition in vivo at 100 mg/kg: 90%

## CCCOCn1c(=O)c2[nH]cnc2n(CC2CC2)c1=O [Compound 34, 3-Cyclopropylmethyl-1-propoxymethylxanthine]
[1]; [5]
  inhibition in vivo at 100 mg/kg: 30%

## CCCOCCn1c(=O)c2[nH]cnc2n(C)c1=O [Compound 35]
[1]; [5]
  inhibition in vivo at 100 mg/kg: 30%

## CCCOCCn1c(=O)c2[nH]cnc2n(CC)c1=O [Compound 36]
[2]
  inhibition in vivo at 10 mg/kg: 23%

## CCCOCCn1c(=O)c2[nH]cnc2n(CCC)c1=O [Compound 37, 1-(2-Propoxyethyl)-3-propylxanthine]
[1]; [5]
  inhibition in vivo at 100 mg/kg: 80%

## CCCOCCn1c(=O)c2[nH]cnc2n(C2CC2)c1=O [Compound 39]
[1]; [5]
  inhibition in vivo at 100 mg/kg: 30%
[2]
  inhibition in vivo at 10 mg/kg: 36%

## CCCCOCn1c(=O)c2[nH]cnc2n(C)c1=O [Compound 40]
[1]; [5]
  inhibition in vivo at 100 mg/kg: 40%

## CCCCOCn1c(=O)c2[nH]cnc2n(CC)c1=O [Compound 41]
[1]; [5]
  inhibition in vivo at 100 mg/kg: 40%

## CCCCOCCn1c(=O)c2[nH]cnc2n(CC)c1=O [Compound 44]
[1]; [5]
  inhibition in vivo at 100 mg/kg: 30%
[2]
  inhibition in vivo at 10 mg/kg: 64%

## CC(C)COCn1c(=O)c2[nH]cnc2n(C)c1=O [Compound 48, 1-Isobutoxymethyl-3-methylxanthine]
[1]; [5]
  inhibition in vivo at 100 mg/kg: 40%

## CC(C)COCn1c(=O)c2[nH]cnc2n(C2CC2)c1=O [Compound 50]
[1]; [5]
  inhibition in vivo at 100 mg/kg: 40%

## CCC(C)OCn1c(=O)c2[nH]cnc2n(CC)c1=O (stereo not drawn) [Compound 52, 1-sec-Butoxymethyl-3-ethylxanthine]
[1]; [5]
  inhibition in vivo at 100 mg/kg: 30%

## CCn1c(=O)n(COCCOC)c(=O)c2[nH]cnc21 [Compound 54]
[1]; [5]
  inhibition in vivo at 100 mg/kg: 30%
[2]
  inhibition in vivo at 10 mg/kg: 36%

## CCn1c(=O)n(COc2ccccc2)c(=O)c2[nH]cnc21 [Compound 58]
[2]
  inhibition in vivo at 10 mg/kg: 20%

## CCn1c(=O)n(CCOc2ccccc2)c(=O)c2[nH]cnc21 [Compound 61]
[2]
  inhibition in vivo at 10 mg/kg: 23%

## CCCCn1c(=O)n(CCOc2ccccc2)c(=O)c2[nH]cnc21 [Compound 63]
[2]
  inhibition in vivo at 10 mg/kg: 27%

## CCn1c(=O)n(COc2ccc(Cl)cc2)c(=O)c2[nH]cnc21 [Compound 66]
[2]
  inhibition in vivo at 10 mg/kg: 23%

## CCn1c(=O)n(CCOC)c(=O)c2c1ncn2Cc1ccccc1 [Compound 77]
[2]
  inhibition in vivo at 10 mg/kg: 33%

## CCn1c(=O)n(CCCOC)c(=O)c2c1ncn2Cc1ccccc1 [Compound 82]
[2]
  inhibition in vivo at 10 mg/kg: 30%

## CCCOCn1c(=O)c2c(ncn2Cc2ccccc2)n(C2CC2)c1=O [Compound 103]
[2]
  inhibition in vivo at 10 mg/kg: 32%

## CCCCOCCn1c(=O)c2c(ncn2Cc2ccccc2)n(CC)c1=O [Compound 114]
[2]
  inhibition in vivo at 10 mg/kg: 27%

## Cn1c(=O)c2[nH]cnc2n(C)c1=O [theophylline, 1,3-dimethylxanthine]
[3]
  inhibition of ischemic nerve cell damage: inhibits ischemic nerve cell damage neither
[4]
  inhibition of ischemic nerve cell damage: inhibits ischemic nerve cell damage neither
